From ChEMBL document CHEMBL5724914, “Linking interpersonal differences in gut microbiota composition and drug biotransformation activity” (2024)

Legend:
[1] = The drug is tested on Z-019 corresponding to rat gut metagenome with ENA study accession number: PRJEB37062 and ENA sample accession number: ERS12561818 for biotransformation under anaerobic condition. The drug concentrations were measured over 9 timepoints collected between 0 and 24 hours of incubation by liquid-chromatography-coupled mass spectrometry (LC–MS); settings: 2 µM
[2] = The drug is tested on Z-017 corresponding to mouse gut metagenome with ENA study accession number: PRJEB37062 and ENA sample accession number: ERS12561816 for biotransformation under anaerobic condition. The drug concentrations were measured over 9 timepoints collected between 0 and 24 hours of incubation by liquid-chromatography-coupled mass spectrometry (LC–MS); settings: 2 µM
[3] = The drug is tested on Z-007 corresponding to rat gut metagenome with ENA study accession number: PRJEB37062 and ENA sample accession number: ERS12561807 for biotransformation under anaerobic condition. The drug concentrations were measured over 9 timepoints collected between 0 and 24 hours of incubation by liquid-chromatography-coupled mass spectrometry (LC–MS); settings: 2 µM
[4] = The drug is tested on Z-003 corresponding to pig gut metagenome with ENA study accession number: PRJEB37062 and ENA sample accession number: ERS12561803 for biotransformation under anaerobic condition. The drug concentrations were measured over 9 timepoints collected between 0 and 24 hours of incubation by liquid-chromatography-coupled mass spectrometry (LC–MS); settings: 2 µM
[5] = The drug is tested on Z-002 corresponding to rabbit gut metagenome with ENA study accession number: PRJEB37062 and ENA sample accession number: ERS12561802 for biotransformation under anaerobic condition. The drug concentrations were measured over 9 timepoints collected between 0 and 24 hours of incubation by liquid-chromatography-coupled mass spectrometry (LC–MS); settings: 2 µM
[6] = The drug is tested on WLS-240 corresponding to human gut metagenome with ENA study accession number: PRJEB37062 and ENA sample accession number: ERS12561773 for biotransformation under anaerobic condition. The drug concentrations were measured over 9 timepoints collected between 0 and 24 hours of incubation by liquid-chromatography-coupled mass spectrometry (LC–MS); settings: 2 µM
[7] = The drug is tested on WLS-098 corresponding to human gut metagenome with ENA study accession number: PRJEB37062 and ENA sample accession number: ERS12561754 for biotransformation under anaerobic condition. The drug concentrations were measured over 9 timepoints collected between 0 and 24 hours of incubation by liquid-chromatography-coupled mass spectrometry (LC–MS); settings: 2 µM
[8] = The drug is tested on WLS-073 corresponding to human gut metagenome with ENA study accession number: PRJEB37062 and ENA sample accession number: ERS12561749 for biotransformation under anaerobic condition. The drug concentrations were measured over 9 timepoints collected between 0 and 24 hours of incubation by liquid-chromatography-coupled mass spectrometry (LC–MS); settings: 2 µM
[9] = The drug is tested on WLS-069 corresponding to human gut metagenome with ENA study accession number: PRJEB37062 and ENA sample accession number: ERS12561748 for biotransformation under anaerobic condition. The drug concentrations were measured over 9 timepoints collected between 0 and 24 hours of incubation by liquid-chromatography-coupled mass spectrometry (LC–MS); settings: 2 µM
[10] = human gut metagenome, 24 h, 2 µM
[11] = human gut metagenome, 24 h, 2 µM; remark: listed apart in the source
[12] = human gut metagenome, 24 h, 2 µM; remark: listed apart in the source
[13] = human gut metagenome, 24 h, 2 µM; remark: listed apart in the source
[14] = human gut metagenome, 24 h, 2 µM; remark: listed apart in the source
[15] = human gut metagenome, 24 h, 2 µM; remark: listed apart in the source
[16] = human gut metagenome, 24 h, 2 µM; remark: listed apart in the source
[17] = human gut metagenome, 24 h, 2 µM; remark: listed apart in the source
[18] = human gut metagenome, 24 h, 2 µM; remark: listed apart in the source
[19] = human gut metagenome, 24 h, 2 µM; remark: listed apart in the source
[20] = human gut metagenome, 24 h, 2 µM; remark: listed apart in the source
Further: call rule not given here.

Bacterial Biotransformation [1] | Bacterial Biotransformation [2] | Bacterial Biotransformation [3] | Bacterial Biotransformation [4] | Bacterial Biotransformation [5] | Bacterial Biotransformation [6] | Bacterial Biotransformation [7] | Bacterial Biotransformation [8] | Bacterial Biotransformation [9] | Bacterial Biotransformation [10] | Bacterial Biotransformation [11] | Bacterial Biotransformation [12] | Bacterial Biotransformation [13] | Bacterial Biotransformation [14] | Bacterial Biotransformation [15] | Bacterial Biotransformation [16] | Bacterial Biotransformation [17] | Bacterial Biotransformation [18] | Bacterial Biotransformation [19] | Bacterial Biotransformation [20] | SMILES
Compound NOT metabolized | Compound NOT metabolized | Compound NOT metabolized | Compound metabolized | Compound metabolized | Compound NOT metabolized | Compound metabolized | Compound NOT metabolized | Compound NOT metabolized | Compound NOT metabolized | Compound NOT metabolized | Compound NOT metabolized | Compound NOT metabolized | Compound metabolized | Compound NOT metabolized | Compound NOT metabolized | Compound NOT metabolized | Compound metabolized | Compound metabolized | Compound NOT metabolized | CCOc1ccccc1OCCN[C@H](C)Cc1ccc(OC)c(S(N)(=O)=O)c1.Cl [TAMSULOSIN HYDROCHLORIDE]
Compound NOT metabolized | Compound NOT metabolized | Compound NOT metabolized | Compound NOT metabolized | Compound metabolized | Compound NOT metabolized | Compound NOT metabolized | Compound NOT metabolized | Compound NOT metabolized | Compound NOT metabolized | Compound NOT metabolized | Compound NOT metabolized | Compound NOT metabolized | Compound NOT metabolized | Compound NOT metabolized | Compound NOT metabolized | Compound NOT metabolized | Compound NOT metabolized | Compound NOT metabolized | Compound NOT metabolized | O=C(NC(Cc1cc(=O)[nH]c2ccccc12)C(=O)O)c1ccc(Cl)cc1 (stereo not given) [REBAMIPIDE]
Compound NOT metabolized | Compound NOT metabolized | Compound NOT metabolized | Compound NOT metabolized | Compound NOT metabolized | Compound metabolized | Compound metabolized | Compound metabolized | Compound metabolized | Compound metabolized | Compound metabolized | Compound metabolized | Compound metabolized | Compound metabolized | Compound NOT metabolized | Compound metabolized | Compound metabolized | Compound metabolized | Compound metabolized | Compound metabolized | COc1ccccc1OCCNCC(O)COc1cccc2[nH]c3ccccc3c12 (stereo not given) [CARVEDILOL]
Compound NOT metabolized | Compound NOT metabolized | Compound NOT metabolized | Compound NOT metabolized | Compound metabolized | Compound metabolized | Compound metabolized | Compound metabolized | Compound metabolized | Compound metabolized | Compound metabolized | Compound metabolized | Compound metabolized | Compound metabolized | Compound metabolized | Compound metabolized | Compound metabolized | Compound metabolized | Compound metabolized | Compound metabolized | Nc1nc(NC2CC2)c2ncn([C@H]3C=C[C@@H](CO)C3)c2n1.Nc1nc(NC2CC2)c2ncn([C@H]3C=C[C@@H](CO)C3)c2n1.O=S(=O)(O)O [ABACAVIR SULFATE]
Compound NOT metabolized | Compound NOT metabolized | Compound NOT metabolized | Compound metabolized | Compound metabolized | Compound metabolized | Compound metabolized | Compound NOT metabolized | Compound metabolized | Compound NOT metabolized | Compound NOT metabolized | Compound metabolized | Compound metabolized | Compound metabolized | Compound NOT metabolized | Compound NOT metabolized | Compound metabolized | Compound metabolized | Compound metabolized | Compound metabolized | OCCN(CCO)c1nc(N2CCCCC2)c2nc(N(CCO)CCO)nc(N3CCCCC3)c2n1 [DIPYRIDAMOLE]
Compound NOT metabolized | Compound NOT metabolized | Compound NOT metabolized | Compound NOT metabolized | Compound metabolized | Compound metabolized | Compound metabolized | Compound NOT metabolized | Compound NOT metabolized | Compound metabolized | Compound NOT metabolized | Compound NOT metabolized | Compound metabolized | Compound metabolized | Compound NOT metabolized | Compound metabolized | Compound NOT metabolized | Compound metabolized | Compound metabolized | Compound metabolized | CCN(CC)CCNC(=O)c1ccc(NC(C)=O)cc1 [ACECAINIDE]
